Results as given in PubChem BioAssay AID2060626 (Molecular Pharmacology Branch, DTP, NCI, 2025).
pIC50: −log10 of the molar value. Where “and” joins values, the source holds several entries; their conditions need not be identical. Identical values can stand only once. Each block holds one compound with its values, some of them ahead of it.

Test system: 168753-222-R-J1-PDC complex spheroid viability
Experiment: Anticancer human tumor 168753-222-R-J1-PDC patient-derived bladder carcinoma cell line growth inhibition [CLK]
Details: for viability, T/C: stronger effect = lower value
Summary of the method: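 Patient-derived tumor cells grown as complex spheroids with HUVEC endothelial cells and mesenchymal stem cells, treated with drug combinations. Concentrations descend in half-log steps from near clinical Cmax, or from 10 microM if Cmax unknown.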

[1] = curve of first compound, second compound 0.0316 µM
[2] = curve of first compound, second compound 0.1 µM
[3] = curve of first compound, second compound 0.316 µM
[4] = curve of first compound, second compound 1 µM
[5] = curve of first compound, second compound 3.16 µM
[6] = curve of first compound, second compound 10 µM
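Note: viability measured after seven days of drug exposure.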
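Throughout, for viability, T/C: luminescence signal used as surrogate for viable cell amount; 100% = DMSO vehicle control wells.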

SMILES: NC(=O)C(=Cn1cnc(-c2cc(C(F)(F)F)cc(C(F)(F)F)c2)n1)c1cncnc1 + CN1CCN(c2cc(C(=O)Nc3cc4cc(-c5cnn(C)c5)ccc4cn3)ccn2)CC1
- pIC50 [1]: 7.25
- pIC50 [2]: 7.87
- pIC50 [3]: > 8.02
- pIC50 [4]: > 8.02
- pIC50 [5]: > 8.02
- pIC50 [6]: > 8.02
- viability, T/C (second compound 0.0316 µM, first compound 0.00949 µM): 75.6%
- viability, T/C (second compound 0.0316 µM, first compound 0.03 µM): 72.3%
- viability, T/C (second compound 0.0316 µM, first compound 0.0949 µM): 31.5%
- viability, T/C (second compound 0.0316 µM, first compound 0.3 µM): 22.6%
- viability, T/C (second compound 0.0316 µM, first compound 0.949 µM): 15%
- viability, T/C (second compound 0.0316 µM, first compound 3 µM): 12.9%
- viability, T/C (second compound 0.1 µM, first compound 0.00949 µM): 61.4%
- viability, T/C (second compound 0.1 µM, first compound 0.03 µM): 25.2%
- viability, T/C (second compound 0.1 µM, first compound 0.0949 µM): 10.8%
- viability, T/C (second compound 0.1 µM, first compound 0.3 µM): 10.9%
- viability, T/C (second compound 0.1 µM, first compound 0.949 µM): 5.67%
- viability, T/C (second compound 0.1 µM, first compound 3 µM): 3.14%
- viability, T/C (second compound 0.316 µM, first compound 0.00949 µM): 6.93%
- viability, T/C (second compound 0.316 µM, first compound 0.03 µM): 4.81%
- viability, T/C (second compound 0.316 µM, first compound 0.0949 µM): 0.76%
- viability, T/C (second compound 0.316 µM, first compound 0.3 µM): 0.08%
- viability, T/C (second compound 0.316 µM, first compound 0.949 µM): 0.11%
- viability, T/C (second compound 0.316 µM, first compound 3 µM): 0.75%
- viability, T/C (second compound 1 µM, first compound 0.00949 µM): 0.09%
- viability, T/C (second compound 1 µM, first compound 0.03 µM): 0.15%
- viability, T/C (second compound 1 µM, first compound 0.0949 µM): 0.1%
- viability, T/C (second compound 1 µM, first compound 0.3 µM): 0.05%
- viability, T/C (second compound 1 µM, first compound 0.949 µM): 0.06%
- viability, T/C (second compound 1 µM, first compound 3 µM): 0.72%
- viability, T/C (second compound 3.16 µM, first compound 0.00949 µM): 0.06%
- viability, T/C (second compound 3.16 µM, first compound 0.03 µM): 0.22%
- viability, T/C (second compound 3.16 µM, first compound 0.0949 µM): 0.75%
- viability, T/C (second compound 3.16 µM, first compound 0.3 µM): 0.08%
- viability, T/C (second compound 3.16 µM, first compound 0.949 µM): 0.69%
- viability, T/C (second compound 3.16 µM, first compound 3 µM): 0.12%
- viability, T/C (second compound 10 µM, first compound 0.00949 µM): 0.87%
- viability, T/C (second compound 10 µM, first compound 0.03 µM): 0.14%
- viability, T/C (second compound 10 µM, first compound 0.0949 µM): 0.3%
- viability, T/C (second compound 10 µM, first compound 0.3 µM): 0.13%
- viability, T/C (second compound 10 µM, first compound 0.949 µM): 0.22%
- viability, T/C (second compound 10 µM, first compound 3 µM): 0.56%

SMILES: CC(CO)NC(=O)c1cc(-c2ccc(Cl)cc2)nn(-c2cnn(C)c2)c1=O (stereo unspecified) + CN1CCN(c2cc(C(=O)Nc3cc4cc(-c5cnn(C)c5)ccc4cn3)ccn2)CC1
- pIC50 [1]: < 5.00
- pIC50 [2]: 5.28
- pIC50 [3]: > 7.50
- pIC50 [4]: > 7.50
- pIC50 [5]: > 7.50
- pIC50 [6]: > 7.50
- viability, T/C (second compound 0.0316 µM, first compound 0.0316 µM): 98.7%
- viability, T/C (second compound 0.0316 µM, first compound 0.1 µM): 130%
- viability, T/C (second compound 0.0316 µM, first compound 0.316 µM): 64%
- viability, T/C (second compound 0.0316 µM, first compound 1 µM): 112%
- viability, T/C (second compound 0.0316 µM, first compound 3.16 µM): 117%
- viability, T/C (second compound 0.0316 µM, first compound 10 µM): 88.2%
- viability, T/C (second compound 0.1 µM, first compound 0.0316 µM): 87.2%
- viability, T/C (second compound 0.1 µM, first compound 0.1 µM): 81.8%
- viability, T/C (second compound 0.1 µM, first compound 0.316 µM): 64.1%
- viability, T/C (second compound 0.1 µM, first compound 1 µM): 73.3%
- viability, T/C (second compound 0.1 µM, first compound 3.16 µM): 58.6%
- viability, T/C (second compound 0.1 µM, first compound 10 µM): 39.6%
- viability, T/C (second compound 0.316 µM, first compound 0.0316 µM): 19.4%
- viability, T/C (second compound 0.316 µM, first compound 0.1 µM): 13.6%
- viability, T/C (second compound 0.316 µM, first compound 0.316 µM): 16.8%
- viability, T/C (second compound 0.316 µM, first compound 1 µM): 13.8%
- viability, T/C (second compound 0.316 µM, first compound 3.16 µM): 19.1%
- viability, T/C (second compound 0.316 µM, first compound 10 µM): 13.8%
- viability, T/C (second compound 1 µM, first compound 0.0316 µM): 0.44%
- viability, T/C (second compound 1 µM, first compound 0.1 µM): 0.4%
- viability, T/C (second compound 1 µM, first compound 0.316 µM): 0.31%
- viability, T/C (second compound 1 µM, first compound 1 µM): 0.55%
- viability, T/C (second compound 1 µM, first compound 3.16 µM): 0.46%
- viability, T/C (second compound 1 µM, first compound 10 µM): 3.13%
- viability, T/C (second compound 3.16 µM, first compound 0.0316 µM): 0.2%
- viability, T/C (second compound 3.16 µM, first compound 0.1 µM): 0.16%
- viability, T/C (second compound 3.16 µM, first compound 0.316 µM): 2.4%
- viability, T/C (second compound 3.16 µM, first compound 1 µM): 0.15%
- viability, T/C (second compound 3.16 µM, first compound 3.16 µM): 2.55%
- viability, T/C (second compound 3.16 µM, first compound 10 µM): 0.21%
- viability, T/C (second compound 10 µM, first compound 0.0316 µM): 0.26%
- viability, T/C (second compound 10 µM, first compound 0.1 µM): 0.45%
- viability, T/C (second compound 10 µM, first compound 0.316 µM): 0.61%
- viability, T/C (second compound 10 µM, first compound 1 µM): 0.27%
- viability, T/C (second compound 10 µM, first compound 3.16 µM): 1.02%
- viability, T/C (second compound 10 µM, first compound 10 µM): 2.24%

- pIC50 (curve of compound): 6.59 and 5.65
SMILES: COc1ccc([C@@H](O)c2cc(-c3ncnc4cc(N5CCOCC5)ccc34)c(F)cc2Cl)nn1
- viability, T/C (compound 0.0316 µM): 90% and 106%
- viability, T/C (compound 0.1 µM): 95.4% and 97.4%
- viability, T/C (compound 0.316 µM): 40.8% and 95.7%
- viability, T/C (compound 1 µM): 26.3% and 80.3%
- viability, T/C (compound 3.16 µM): 13.1% and 37.1%
- viability, T/C (compound 10 µM): 7.58% and 16.6%
